In patent US20240116923A1, “USE OF INDOLE, 6- AND 7-AZAINDOLE DERIVATIVES AS INHIBITORS OF FERROPTOSIS REGULATED CELL DEATH” (Seabelife, priority 2021, published 2024):
Where two headings read alike, the source gives them in different places.

Tests used:
[1] = system: human neuroblastoma cell line SH-SY5Y; test: Neurotoxicity assay, SH-SY5Y cells + erastin or RSL3, MTS cell viability; type: cell-based; conditions: Homo sapiens
Method: (§1) The excitotoxicity model used was the mouse hippocampal neuronal HT22 cells treated with glutamate [Dixon et al., Cell, 2012, 149(5), 1060-1072]. Ferroptosis and oxidative stress are both associated in this glutamate-induced cell death [Chu et al., Neural Regen. Res., 2020, 15(3), 528-536]. Phenotypic screening was also carried out with additional cell death inducers, erastin and RSL3 ((1S,3R)-Ras-selective lethal), in HT22 and SH-SY5Y (human neuroblastoma cells). Erastin and RSL3 are well described molecules, used as chemical tools for the study of ferroptosis regulation and neuronal pathologies [Lewerenz et al., Front. Neurosci., 2018, 12: 214; Reichert et al., Int. J. Mol. Sci., 2020, 21, 8765].
(§2) Mouse hippocampal neuronal cell line (HT22, ATCC) and human neuroblastoma cell line (SH-SY5Y, ATCC) were grown in Dulbecco's Modified Eagle Medium (DMEM, Gibco) supplemented with 10% fetal bovine serum (FBS, Gibco) at 37° C. under 5% CO2 atmosphere. Neurotoxicity was induced by erastin or RSL3 and excitotoxicity was induced by glutamate. Cells were seeded in 96-well plates at 5,000 and 10,000 cells/well for HT22 and SH-SY5Y cell lines, respectively. Cells were treated with 0.5-1 μM Erastin (HT22 cells) or 10 μM Erastin (SH-SY5Y cells) or 5-10 mM glutamate (HT22 cells) or 0.5 μM RSL3 (HT22 cells) or 5 μM RSL3 (SH-SY5Y cells) for 24 h in presence of increasing concentrations of inhibitors. Cells treated with DMSO only were used as controls. Cell viability was assessed by MTS assay (CellTiter 96 AQueous One Solution Cell Proliferation assay, Promega).
(§3) In FIGS. 1, 2A and 2B, an inhibitor was added to HT22 (FIG. 1: compound 6) or SH-SY5Y (FIG. 2A: compound 6; FIG. 2B: compound 25) cells in the presence or not of cell death inducers (erastin, glutamate or RSL3). […] EC50 values for compounds 1-28 were calculated from dose-response curves using Graphpad Prism software.

[2] = system: mouse hippocampal neuronal cell line HT22; test: Neurotoxicity and excitotoxicity assay, HT22 cells + glutamate, erastin or RSL3, MTS cell viability; type: cell-based; conditions: Mus musculus
Method: as §1, §2, §3

Abca4−/−Rdh8−/− mice = test: In vivo model of Stargardt's disease and AMD, blue light damage, ERG and OCT
Method: As described in Parmar et al., Invest Ophthalmol Vis Sci., 2016, 57(7), mice lacking ATP-binding cassette transporter 4 (ABCA4) and retinol dehydrogenase 8 (RDH8) mimic features of human Stargardt's disease and age-related macular degeneration. Intense light exposure can accelerate retinal degeneration in Abca4^−/−Rdh8^−/− mice.
Blue light damage (BLD) experiments are performed on 7-week-old Abca4−/−Rdh8−/− mice. The animals were adapted to low light levels (4000 lux, 30 minutes). Six days after BLD, an optical coherence tomography (OCT) examination of each eye is performed, which provides a “snapshot” of the state of the retinal cell layers in living mice. OCT is based on the use of a low coherence interferometer. This imaging technique allows in vivo cross-sectional images of tissues to be taken with a resolution of a few microns. It is performed under light gas anaesthesia (5% isoflurane at induction then 2% during maintenance) and is non-invasive. The pupils of the mice are dilated with 0.5% Midriaticum. A representative image of each eye was extracted and included in separate report documents (4 OCT attachments). The following day, measurements of the electrical activity of the retina were made by measuring scotopic and photopic electroretinograms (ERG). The scotopic ERG is performed after a night in the dark in order to measure the electrical response of the rods which represent 97% of the photoreceptors in the mouse. At higher intensities, the cones also respond. This is followed by a photopic ERG which records the response of the cones only. Three measurements corresponding to the activity of 1) rod and cone photoreceptors, 2) inner retinal bipolar cells and 3) cones only, are obtained. The eyes are then harvested and prepared for subsequent histological analysis. In the IP experiments, one eye is dissected and the retina and RPE are frozen separately. These tissues can be used for further measurements.
Compound 1 in powder form is taken up in DMSO in order to obtain a solution at 20 mM. These solutions are stored at −20° C. and are thawed extemporaneously to prepare a solution diluted 89 times in PBS. These solutions give a final concentration in the eye of around 50 μM for compound 1, and 0.25% DMSO. A vehicle is prepared from pure DMSO to achieve a final 0.25% in the vitreous. Mice are lightly anaesthetised with isoflurane during the IVT procedure. A volume of 1.5 μL is injected into the vitreous of the left eye.
In order to measure the thickness of the retina and the photoreceptor layer, image processing was performed using Image J software. The thickness of the whole retina is measured between the outer segment layer and the ganglion cell layer. The thickness of the photoreceptor layer is measured between the outer plexiform layer and the outer segment layer. On average 6 measurements are made along the length of an OCT image representing an upper or lower half-retina. In order to prepare plates of sections of the eyes from the SBL2 IVT experiment, one eye corresponding to each condition was cut on the cryostat, i.e. one NINI eye and both eyes of an SBL2-injected mouse (I and NI).
The solutions are prepared extemporaneously from water-soluble lyophilisates of compound 7 (SBL1)-cyclodextrin (final CD concentration, 15%) and the corresponding placebos. The solutions are prepared by injecting a predefined volume of 0.9% NaCl into the vial. The vial is then vortexed and the solution is filtered into a new sterile tube. Two groups of 3 mice are used for these tests. The group received either SBL1 (20 mg/kg) (n=3) or placebo-SBL1 (n=3). The volume to be injected is calculated according to the weight of the mice and corresponds to 10 ml/kg. Mice were injected 3 and 1 h before and 1 and 3 h after the start of the BLD.

Row | SMILES | EC50 ([1]; SH-SY5Y, 24 h, read-out: EC50 SH-SY5Y Erastin) [µM] | EC50 ([2]; HT-22, 24 h, read-out: EC50 HT22 Erastin) [µM] | EC50 ([2]; HT-22, 24 h, read-out: EC50 HT22 Glutamate) [µM] | EC50 ([2]; HT-22, 24 h, read-out: EC50 HT22 RSL3) [µM] | electrical response of retinal cells (scotopic and photopic ERG) (Abca4−/−Rdh8−/− mice; intravitreal injection, 50 μM in the eye, after blue light damage) | thickness of the retinas from OCT, injected versus non-injected eyes (Abca4−/−Rdh8−/− mice; intravitreal treatment, FIG. 33) | photopic ERG, injected vs non-injected eyes (Abca4−/−Rdh8−/− mice; intravitreal, 50 μM, 30 cd·s/m2, FIG. 30) | scotopic ERG B wave, injected vs uninjected eyes (Abca4−/−Rdh8−/− mice; intravitreal, 50 μM, p=0.048 vs VEH NI at 30 cd·s/m2, FIG. 32) | scotopic ERG A wave, injected eye vs vehicle-injected eye (Abca4−/−Rdh8−/− mice; intravitreal, 50 μM, significant (P=0.0206) vs VEH NI at 10 cd·s/m2, FIG. 31) | EC50 ([1]; SH-SY5Y cells, 5 μM RSL3, 24 h, MTS, read-out: EC50 SH-SY5Y RSL3) [µM] | EC50 ([1]; SH-SY5Y cells, 10 μM Erastin, 24 h, MTS, read-out: EC50 SH-SY5Y Erastin) [µM] | EC50 ([2]; HT-22, HT22 cells, 0.5 μM RSL3, 24 h, MTS, read-out: EC50 HT22 RSL3) [µM] | EC50 ([2]; HT-22, HT22 cells, 0.5-1 μM Erastin, 24 h, MTS, read-out: EC50 HT22 Erastin) [µM] | EC50 ([2]; HT-22, HT22 cells, 5-10 mM glutamate, 24 h, MTS, read-out: EC50 HT22 Glutamate) [µM] | electrical response of retinal cells (scotopic and photopic ERG) compared to placebo (Abca4−/−Rdh8−/− mice; intraperitoneal 20 mg/kg, 3 and 1 h before and 1 and 3 h after start of BLD, cyclodextrin lyophilisate) | scotopic B wave at higher intensities (inner retina response) (Abca4−/−Rdh8−/− mice; intraperitoneal 20 mg/kg, FIG. 35) | scotopic ERG response to the 30 cd·s/m^2 flash intensity (mixed rod-cone response) (Abca4−/−Rdh8−/− mice; intraperitoneal 20 mg/kg, FIGS. 34 & 35) | whole retinal thickness from OCT, injected vs non-injected mice (Abca4−/−Rdh8−/− mice; intraperitoneal treatment, FIG. 36)
1 | Oc1ccc(-c2cc3ccccc3[nH]2)cc1 [Compound 1, 4-(1H-indol-2-yl)phenol] | 1.06 | 2.9 | 2.55 | 3.27 | appears to preserve the electrical response of retinal cells | significant difference | partially preserved | appears preserved | a clear difference is observed | – | – | – | – | – | – | – | – | –
2 | Oc1ccc(-c2cc3cccnc3[nH]2)cc1 [Compound 7, 4-(1H-pyrrolo[2,3-b]pyridin-2-yl)phenol] | – | – | – | – | – | – | – | – | – | 1.36 | 12.4 | 14.6 | > 25 | > 25 | slightly protect the electrical response of retinal cells | protective trend | protective trend | a difference between the whole retinas of injected and non-injected mice
